In US6660752B2, “2,6-Substituted chroman derivatives useful as beta-3 adrenoreceptor agonists” (Bayer Pharmaceuticals Corporation, priority 2001, dated 2003):
Counter-ions that a name gives are not always drawn.

What follows are compounds tested against T1, human beta-3-adrenergic receptor (Homo sapiens, UniProt P13945) (assay: cAMP production (beta-3 agonist activity) in CHO cells stably expressing human beta-3-adrenergic receptor, cAMP SPA). Details: CHO cells expressing full-length human beta-3-adrenergic receptor, 30 min incubation, 10 μM to 3 nM, read-out: Beta-3 Agonistic Activity: Compounds with EC50 values ≦1 μM.
T1 construct: stably express full-length human beta-3-adrenergic receptor; expressed in transfected cells; host or cells: Chinese hamster ovary (CHO) cells
Assay type: cell-based
Method: Chinese hamster ovary (CHO) cells that stably express full-length human beta-3-adrenergic receptor (Granneman et al., Mol. Pharmacol. 44:264-270, 1993) can be used in the following procedure. The cell line is grown in 90% F12 nutrient mixture (HAM), 10% fetal bovine serum, 100 units/ml penicillin G sodium, […] streptomycin sulfate, and 2 mM L-glutamine at 37° C. in 95% air and 5% CO2. The transfected cell line is maintained with G-418 (800 μg/ml).
To test the agonist activity, cells are exposed to test compound and then assayed for cAMP production. CHO cells (100 μl) are plated at 5×10^4 cells/well of a 96-well plate (Costar, Cambridge, Mass.) to achieve 70% confluency the next day. After overnight incubation at 37° C., media is removed and the cells are treated for 30 minutes at 37° C. with KRP buffer (120 mM NaCl, 5.1 mM KCl, 0.6 mM MgSO4.7H2O, 0.8 mM CaCl2.H2O, […] phosphate buffer, […] Hepes pH 7.4)+[…] IBMX ([…]), +1% DMSO, +/− test compounds ([…]). Test compounds are assayed from 10 μM to 3 nM with 3-fold serial dilutions. The control agonist, isoproterenol (10 mM stock in 1.1 mM ascorbate), is assayed by 3-fold dilution beginning at 1 μM. After a 30-minute incubation with the test compounds, the buffer/compound mixture is removed. The cells are lysed and cAMP levels are measured using the cAMP SPA screening assay system (Amersham, Arlington Heights, Ill.). The cAMP values are then plotted to determine the EC50 of each compound tested.

T1 sequence (P13945 whole entry): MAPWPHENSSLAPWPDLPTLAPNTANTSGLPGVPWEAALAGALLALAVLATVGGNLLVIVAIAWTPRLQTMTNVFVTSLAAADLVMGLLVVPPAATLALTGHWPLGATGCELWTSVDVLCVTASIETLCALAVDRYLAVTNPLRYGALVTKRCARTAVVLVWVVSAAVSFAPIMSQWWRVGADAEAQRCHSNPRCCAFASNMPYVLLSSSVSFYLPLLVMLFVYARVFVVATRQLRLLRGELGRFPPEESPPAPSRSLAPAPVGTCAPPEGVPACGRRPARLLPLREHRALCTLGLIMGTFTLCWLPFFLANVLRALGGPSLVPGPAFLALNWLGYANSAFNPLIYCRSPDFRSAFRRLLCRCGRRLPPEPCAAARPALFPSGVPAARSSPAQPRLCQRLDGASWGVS

| EC50 [nM] | SMILES |
| --- | --- |
| ≤ 1000 | O=C(NS(=O)(=O)c1ccc(-c2ccc3c(c2)CC[C@H](CNC[C@H](O)c2cccnc2)O3)cc1)c1ccc(F)cc1 [Example 295, N-(4-fluorobenzoyl)-4-[(2R)-2-({[(2R)-2-hydroxy-2-(3-pyridinyl)ethyl]amino}methyl)-3,4-dihydro-2H-chromen-6-yl]benzenesulfonamide] |
| ≤ 1000 | Cc1ccc(C(=O)NS(=O)(=O)c2ccc(-c3ccc4c(c3)CC[C@H](CNC[C@H](O)c3cccnc3)O4)cc2)cc1 [Example 296] |
| ≤ 1000 | Cc1cccc(C(=O)NS(=O)(=O)c2cccc(-c3ccc4c(c3)CC[C@H](CNC[C@H](O)c3cccnc3)O4)c2)c1 [Example 297] |
| ≤ 1000 | COc1cccc(C(=O)NS(=O)(=O)c2cccc(-c3ccc4c(c3)CC[C@H](CNC[C@H](O)c3cccnc3)O4)c2)c1 [Example 298] |
| ≤ 1000 | Cc1ccc(C(=O)NS(=O)(=O)c2cccc(-c3ccc4c(c3)CC[C@H](CNC[C@H](O)c3cccnc3)O4)c2)cc1 [Example 299] |
| ≤ 1000 | COc1ccc(C(=O)NS(=O)(=O)c2ccc(-c3ccc4c(c3)CC[C@H](CNC[C@H](O)c3cccnc3)O4)cc2)cc1 [Example 300, 4-[(2R)-2-({[(2R)-2-hydroxy-2-(3-pyridinyl)ethyl]amino}methyl)-3,4-dihydro-2H-chromen-6-yl]-N-(4-methoxybenzoyl)benzenesulfonamide] |
| ≤ 1000 | O=C(NS(=O)(=O)c1cccc(-c2ccc3c(c2)CCC(CNC[C@H](O)c2cccnc2)O3)c1)c1ccc(Cl)cc1 (stereo partly drawn) [Example 301] |
| ≤ 1000 | O=C(NS(=O)(=O)c1cccc(-c2ccc3c(c2)CC[C@H](CNC[C@H](O)c2cccnc2)O3)c1)c1cccc(Cl)c1 [Example 302] |
| ≤ 1000 | COc1ccc(C(=O)NS(=O)(=O)c2cccc(-c3ccc4c(c3)CCC(CNC[C@H](O)c3cccnc3)O4)c2)cc1 (stereo partly drawn) [Example 303] |
| ≤ 1000 | CN(C)CC(=O)NS(=O)(=O)c1cccc(-c2ccc3c(c2)CC[C@H](CNC[C@H](O)c2cccnc2)O3)c1 [Example 304] |
| ≤ 1000 | CCC(=O)NS(=O)(=O)c1cccc(-c2ccc3c(c2)CC[C@H](CNC[C@H](O)c2cccnc2)O3)c1 [Example 305] |
| ≤ 1000 | O=C(CS(=O)(=O)c1ccccc1)c1ccc(-c2ccc3c(c2)CC[C@H](CNC[C@H](O)c2cccnc2)O3)cc1 [Example 308, 1-{4-[(2R)-2-({[(2R)-2-hydroxy-2-(3-pyridinyl)ethyl]amino}methyl)-3,4-dihydro-2H-chromen-6-yl]phenyl}-2-(phenylsulfonyl)ethanone Dihydrochloride] |
| ≤ 1000 | Cc1ccc(S(=O)(=O)CC(=O)c2ccc(-c3ccc4c(c3)CC[C@H](CNC[C@H](O)c3cccnc3)O4)cc2)cc1 [Example 309] |
| ≤ 1000 | CC1(O)C(=O)NN(c2cccc(-c3ccc4c(c3)CC[C@@H](CNC[C@H](O)c3cccnc3)O4)c2)C1=O (stereo partly drawn) [Example 314, 4-hydroxy-1-{3-[(2S)-2-({[(2R)-2-hydroxy-2-(3-pyridinyl)ethyl]amino}methyl)-3,4-dihydro-2H-chromen-6-yl]phenyl}-4-methyl-3,5-pyrazolidinedione Dihydrochloride] |
| ≤ 1000 | Nc1ccc(-c2ccc3c(c2)CC[C@H](CNC[C@H](O)c2cccnc2)O3)nc1 [Example 317, (1R)-2-({[(2R)-6-(5-amino-2-pyridinyl)-3,4-dihydro-2H-chromen-2-yl]methyl}amino)-1-(3-pyridinyl)ethanol Tetrahydrochloride] |
| ≤ 1000 | O=S(=O)(Nc1ccc(-c2ccc3c(c2)CC[C@H](CNC[C@H](O)c2cccnc2)O3)nc1)c1ccccc1 [Example 319, N-{6-[(2R)-2-({[(2R)-2-hydroxy-2-(3-pyridinyl)ethyl]amino}methyl)-3,4-dihydro-2H-chromen-6-yl]-3-pyridinyl}benzenesulfonamide Trihydrochloride] |
| ≤ 1000 | O=S(=O)(Nc1ccc(-c2ccc3c(c2)CC[C@H](CNC[C@H](O)c2cccnc2)O3)nc1)c1ccc(Cl)cc1 [Example 320, 4-chloro-N-{6-[(2R)-2-({[(2R)-2-hydroxy-2-(3-pyridinyl)ethyl]amino}methyl)-3,4-dihydro-2H-chromen-6-yl]-3-pyridinyl}benzenesulfonamide] |
| ≤ 1000 | CS(=O)(=O)Nc1ccc(-c2ccc3c(c2)CC[C@H](CNC[C@H](O)c2cccnc2)O3)nc1 [Example 321, N-{6-[(2R)-2-({[(2R)-2-hydroxy-2-(3-pyridinyl)ethyl]amino}methyl)-3,4-dihydro-2H-chromen-6-yl]-3-pyridinyl}methanesulfonamide] |
| ≤ 1000 | O=C(Nc1ccc(-c2ccc3c(c2)CC[C@H](CNC[C@H](O)c2cccnc2)O3)nc1)c1ccccc1 [Example 322] |
| ≤ 1000 | CC(=O)Nc1ccc(-c2ccc3c(c2)CC[C@H](CNC[C@H](O)c2cccnc2)O3)nc1 [Example 323] |
| ≤ 1000 | Cc1ccc(NC(=O)NS(=O)(=O)c2cccc(-c3ccc4c(c3)CC[C@H](CNC[C@H](O)c3cccnc3)O4)c2)cc1 [Example 324, 3-((1R)-1-hydroxy-2-{[((2R)-6-{3-[({[(4-methylphenyl)amino]carbonyl}amino)sulfonyl]phenyl}-3,4-dihydro-2H-chromen-2-yl)methyl]amino}ethyl)pyridine Hydrochloride] |
| ≤ 1000 | NS(=O)(=O)c1ccc(-c2ccc3c(c2)CC[C@H](CNC[C@H](O)c2cccnc2)O3)cc1 [Example 325, 4-[(2R)-2-({[(2R)-2-hydroxy-2-(3-pyridinyl)ethyl]amino}methyl)-3,4-dihydro-2H-chromen-6-yl]benzenesulfonamide] |
| ≤ 1000 | Cc1ccc(NC(=O)NS(=O)(=O)c2ccc(-c3ccc4c(c3)CC[C@H](CNC[C@H](O)c3cccnc3)O4)cc2)cc1 [Example 326, 3-((1R)-1-hydroxy-2-{[((2R)-6-{4-[({[(4-methylphenyl)amino]carbonyl}amino)sulfonyl]phenyl}-3,4-dihydro-2H-chromen-2-yl)methyl]amino}ethyl)pyridine] |
| ≤ 1000 | O=C(Nc1ccc(F)cc1)NS(=O)(=O)c1ccc(-c2ccc3c(c2)CC[C@H](CNC[C@H](O)c2cccnc2)O3)cc1 [Example 327, 3-((1R)-2-{[((2R)-6-{4-[({[(4-fluorophenyl)amino]carbonyl}amino)sulfonyl]phenyl}-3,4-dihydro-2H-chromen-2-yl)methyl]amino}-1-hydroxyethyl)pyridine] |
| ≤ 1000 | O=C(Nc1ccccc1)NS(=O)(=O)c1ccc(-c2ccc3c(c2)CC[C@H](CNC[C@H](O)c2cccnc2)O3)cc1 [Example 328, 3-[(1R)-2-({[(2R)-6-(4-{[(anilinocarbonyl)amino]sulfonyl}phenyl)-3,4-dihydro-2H-chromen-2-yl]methyl}amino)-1-hydroxyethyl]pyridine] |
| ≤ 1000 | O=C(NC1CCCCC1)NS(=O)(=O)c1ccc(-c2ccc3c(c2)CC[C@H](CNC[C@H](O)c2cccnc2)O3)cc1 [Example 329, 3-{(1R)-2-[({(2R)-6-[4-({[(cyclohexylamino)carbonyl]amino}sulfonyl)phenyl]-3,4-dihydro-2H-chromen-2-yl}methyl)amino]-1-hydroxyethyl}pyridine] |
| ≤ 1000 | Cc1cc(Cl)ccc1NC(=O)NS(=O)(=O)c1ccc(-c2ccc3c(c2)CC[C@H](CNC[C@H](O)c2cccnc2)O3)cc1 [Example 330, 3-((1R)-2-{[((2R)-6-{4-[({[(4-chloro-2-methylphenyl)amino]carbonyl}amino)sulfonyl]phenyl}-3,4-dihydro-2H-chromen-2-yl)methyl]amino}-1-hydroxyethyl)pyridine] |
